Test results as given in PubChem BioAssay AID1959 (Broad Institute, 2009).
Calls of active or inactive are those of the source.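 Rule for the calls: active = growth-inhibition EC50 no more than tenfold above the top tested dose; inconclusive = flat fit between 30% and 70% inhibition, or unreliable fit; inactive = EC50 more than tenfold above the top tested dose.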

What follows are compounds tested on E. coli NEB5alpha growth, BacTiter-Glo luminescence, 4 h (assay: antibacterial activity against E. coli NEB5alpha – luminescence, counter-screen for MEX-5/POS-1 RNA-binding inhibitor project, dose response (AID 1959);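 note: pUC19-transformed ampicillin-resistant cells grown in LB with ampicillin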).
For `Cc1ccc(/C=C2\C(=O)NC(=S)N(c3ccc(F)cc3)C2=O)o1`, the EC50 was > 11 µM (inactive). For `N=c1c(S(=O)(=O)c2ccccc2)cc2c(=O)n3ccccc3nc2n1Cc1cccnc1`, the EC50 was > 11 µM (inactive). For `CCN1C(=O)/C(=C2/C=Cc3ccccc3N2C)OC1=S`, the EC50 was > 11 µM (inactive). For `Nc1cc(C(=O)O)c(N)c2c1C(=O)c1ccccc1C2=O`, the EC50 was > 11 µM (inactive). In the case of `CCCCN(C)C(=O)CCC(=O)NNc1nc2ccccc2c2nc(C)nn12`, the EC50 is reported as > 11 µM (inactive). `CC(C)c1cc(C(N)=O)c(NC(=O)c2cccc(COc3ccc(Br)cc3)c2)s1` was tested, and the EC50 was > 11 µM (inactive). With `CC1CCc2nn(CC(=O)NCCN3CCCCC3C)cc2C1` (configuration not stated) the EC50 was > 11 µM (inactive). In the case of `NC(=O)[C@@H]1CCCN1Cc1c(C(=O)N2CCc3ccccc3C2)nc2ccc(Cl)cn12`, the EC50 is reported as > 11 µM (inactive). For `CC(=O)N1CCc2c(sc(NC(=O)C3CCCCC3)c2C(N)=O)C1`, the EC50 was > 11 µM (inactive). `CCC(=O)OC1(C)C(=O)C=C2C=C(C3CC3)OC=C2C1=O` (configuration not stated) was tested, and the EC50 was > 11 µM (inactive). With `Cc1ccc(/C=C2\C(=O)NC(=S)N(c3cccc(F)c3)C2=O)o1` the EC50 was > 11 µM (inactive). For `O=C1C2CC=C(Cl)CC2C(=O)N1CCc1ccccc1` (configuration not stated), the EC50 was > 11 µM (inactive). In the case of `Cc1ccc(NC(=O)CCS(=O)(=O)c2cc3c(cc2Cl)NC(=O)CO3)cc1`, the EC50 is reported as > 11 µM (inactive). For `COc1ccc(C2C(C#N)=C(N)OC3=C2C(=O)CC(C)C3)c(OC)c1OC` (configuration not stated), the EC50 was > 11 µM (inactive). `COc1ccc(NC(=O)NS(=O)(=O)c2ccc(C)cc2)cn1` was tested, and the EC50 was > 11 µM (inactive). `CCCN1C(=O)c2cccc3c(N4CCCCC4)ccc(c23)C1=O` was tested, and the EC50 was > 11 µM (inactive). `OCCCNc1ncnc2sc3c(c12)CCN(Cc1ccccc1)C3` was tested, and the EC50 was > 11 µM (inactive). For `Cc1cc(N2C(=O)C(O)=C(C(=O)c3cc4ccccc4o3)C2c2ccc([N+](=O)[O-])cc2)no1` (configuration not stated), the EC50 was > 11 µM (inactive). `C=CCN1C(=O)/C(=C2/Sc3ccccc3N2CC)SC1=S` was tested, and the EC50 was > 11 µM (inactive). In the case of `Cc1cc(C(F)(F)F)c2c(N)c(C(=O)Nc3cc(C)on3)sc2n1`, the EC50 is reported as > 11 µM (inactive). In the case of `Cc1cc(C)c(-n2c(O)c(/C=N/NC(=O)c3ccncc3)c(=O)[nH]c2=O)c(C)c1`, the EC50 is reported as > 11 µM (inactive). In the case of `COc1cccc(C2C(C(=O)c3cc4cccc(OC)c4o3)=C(O)C(=O)N2c2cc(C)on2)c1OC` (configuration not stated), the EC50 is reported as > 11 µM (inactive). In the case of `O=C1C=C(Nc2cccc3cccnc23)c2ccccc2C1=O`, the EC50 is reported as > 11 µM (inactive). `Cn1ncc2c(NNC(=O)c3ccc(O)cc3)ncnc21` was tested, and the EC50 was > 11 µM (inactive). In the case of `COc1cc(/C=N\Nc2ccc([N+](=O)[O-])cc2)ccc1OCC(=O)Nc1ccc(C)c(C)c1`, the EC50 is reported as > 11 µM (inactive). In the case of `Nc1c(NCCC2=CCCCC2)c(=O)[nH]c(=O)n1Cc1ccccc1`, the EC50 is reported as > 11 µM (inactive). `CN1C(=O)NC(=O)/C(=C\c2ccc([N+](=O)[O-])o2)C1=O` was tested, and the EC50 was > 11 µM (inactive). For `O=C1C(Cl)=C(Nc2ccccc2O)C(=O)N1c1ccccc1`, the EC50 was > 11 µM (inactive). For `CC1CC=C2C(C#N)=C(N)C(C#N)(C#N)C(c3cccs3)C2C1` (configuration not stated), the EC50 was > 11 µM (inactive). `N#Cc1ccccc1CN1C(=O)S/C(=C/c2cccn2-c2ccc(C(=O)O)cc2)C1=O` was tested, and the EC50 was > 11 µM (inactive). In the case of `CCN(CC)CCN1C(=O)C(O)=C(C(=O)c2cc3cccc(OC)c3o2)C1c1ccc(F)cc1` (configuration not stated), the EC50 is reported as > 11 µM (inactive). In the case of `CCN(CC)C(=O)Cn1cc(/C=C2\C(=O)NC(=O)N(c3ccccc3F)C2=O)c2ccccc21`, the EC50 is reported as > 11 µM (inactive). `CCOC(=O)c1ccc(-c2ccc(C=O)o2)cc1` was tested, and the EC50 was > 11 µM (inactive). For `COc1ccc(C2C(C(=O)c3cccs3)=C(O)C(=O)N2c2nncs2)cc1` (configuration not stated), the EC50 was > 11 µM (inactive). With `N#CC(C#N)=Cc1ccc(NC(=O)c2ccc(Br)cc2)cc1` the EC50 was > 11 µM (inactive). `CCC(=O)Nc1cc(C)c(NC(=O)CCc2ccccc2)cn1` was tested, and the EC50 was > 11 µM (inactive). `Cc1ccc(NC(=O)CSc2nccc(=O)[nH]2)c(S(=O)(=O)N2CCOCC2)c1` was tested, and the EC50 was > 11 µM (inactive). With `CC(=O)C1=C(c2ccccc2)NC(=O)NC1c1ccc(O)c(O)c1` (configuration not stated) the EC50 was > 11 µM (inactive). `O=Cc1c(-c2ccccc2)nc2ccccn12` was tested, and the EC50 was > 11 µM (inactive). For `O=C(O)Cn1cc(/C=C2\C(=O)NC(=O)N(c3ccc(F)cc3)C2=O)c2ccccc21`, the EC50 was > 11 µM (inactive). In the case of `CCC(=NCCCN(C)C)c1c(O)n(-c2ccc(OC)cc2)c(=O)[nH]c1=O`, the EC50 is reported as > 11 µM (inactive). With `Cc1ccc(S(=O)(=O)CCSc2nc(C)cc(C(F)(F)F)c2C#N)cc1` the EC50 was > 11 µM (inactive). In the case of `O=C(N1CCOCC1)N1CCC(n2nnc3cc(F)ccc32)CC1`, the EC50 is reported as > 11 µM (inactive). With `CCN(CC)c1ccc(N=Nc2ncn[nH]2)cc1` the EC50 was > 11 µM (inactive). For `Cc1cc(C)nc(NNC2=CC(=O)CC(C)(C)C2)n1`, the EC50 was > 11 µM (inactive). In the case of `O=[N+]([O-])c1ccc(Nc2ccccc2O)c2nonc12`, the EC50 is reported as > 11 µM (inactive). For `N#CC(c1nc2ccccc2nc1OCCO)S(=O)(=O)c1ccccc1` (configuration not stated), the EC50 was > 11 µM (inactive). In the case of `COc1ccc(OC)c(C(=O)c2coc3ccc(O)c(CN4CCOCC4)c23)c1`, the EC50 is reported as > 11 µM (inactive). With `O=C(/C=C/c1ccc([N+](=O)[O-])s1)N1CCCC1` the EC50 was > 11 µM (inactive). With `COc1cc2c(cc1/C=C1/NC(=O)N(c3ccccc3)C1=O)OCO2` the EC50 was > 11 µM (inactive). With `C=CCNC(=S)Nc1cc(Cl)ccc1OC` the EC50 was > 11 µM (inactive). For `CCOC(=O)COn1c(=O)c(-c2cc3ccccc3o2)[n+]([O-])c2ccccc21`, the EC50 was > 11 µM (inactive). In the case of `COc1ccc(N=Cc2c(O)c3ccccc3n2C(C)=O)cc1`, the EC50 is reported as > 11 µM (inactive). In the case of `CNc1ccc2nc3ccccc3[n+](C)c2c1`, the EC50 is reported as > 11 µM (inactive). For `CN(C)c1ccc(N=Cc2nc(-c3ccccc3)oc2O)cc1`, the EC50 was > 11 µM (inactive). `COC(=O)C1=C(C)N(Cc2ccccc2)C(=NCC(C)C)N[C@H]1c1ccccc1` was tested, and the EC50 was > 11 µM (inactive). In the case of `CCOC(=O)Cn1c2ccc(OC)cc2c2nc3ccccc3nc21`, the EC50 is reported as > 11 µM (inactive). With `O=C1NC(=S)/C(=C\c2ccc(-c3ccccc3Cl)o2)S1` the EC50 was > 11 µM (inactive). In the case of `COc1ccc(-n2c(O)c(/C=C3\C=Nc4ccc(Br)cc43)c(=O)[nH]c2=O)c(OC)c1`, the EC50 is reported as > 11 µM (inactive). With `Cc1ccc(-n2[nH]c(C)c(/C=N/NC(=O)c3ccc(O)cc3O)c2=O)cc1` the EC50 was > 11 µM (inactive). `Cc1ccc(N=Cc2sc(O)c3ccccc23)c(C)c1` was tested, and the EC50 was > 11 µM (inactive). With `Cc1ccc(-c2[nH]c3cc(C(N)=O)ccc3c(=O)c2O)cc1` the EC50 was > 11 µM (inactive). `COc1ccc(C2=CC3=C(Br)C(=O)C(C)(OC(=O)C4CCCC4)C(=O)C3=CO2)cc1` (configuration not stated) was tested, and the EC50 was > 11 µM (inactive). `COc1ccc(C2C(C#N)=C(N)OC3=C2C(=O)CC(C)(C)C3)c([N+](=O)[O-])c1OC` (configuration not stated) was tested, and the EC50 was > 11 µM (inactive). For `Cc1cc(C=O)c(C)n1-c1ccc(Cl)c(C(=O)O)c1`, the EC50 was > 11 µM (inactive). In the case of `Cc1cc(C=C2C(=O)c3ccccc3C2=O)c(C)n1-c1ccc(Cl)cc1`, the EC50 is reported as > 11 µM (inactive). `CCOn1c(=O)c(-c2cc3ccccc3o2)[n+]([O-])c2ccccc21` was tested, and the EC50 was > 11 µM (inactive). `Cc1cccn2c(=O)c3cc(C(=O)NCc4ccco4)c(=N)n(C(C)C)c3nc12` was tested, and the EC50 was > 11 µM (inactive). In the case of `CN=C1S/C(=C\c2cn(CC(=O)OC)c3ccccc23)C(=O)N1C`, the EC50 is reported as > 11 µM (inactive). `COc1ccccc1-c1cnn2c(NCc3ccccc3)cc(C)nc12` was tested, and the EC50 was > 11 µM (inactive). For `CS/C(=N\S(=O)(=O)c1cccs1)Nc1cccc(Cl)c1C`, the EC50 was > 11 µM (inactive). For `COC(=O)c1cc(-n2cccc2)ccc1N1CCOCC1`, the EC50 was > 11 µM (inactive). `O=C(O)c1ccccc1N(c1ccccc1)c1ccccc1` was tested, and the EC50 was > 11 µM (inactive). `CC(C)(C)OC(=O)NCCCC1=CC2=CC(=O)C(C)(OC(=O)c3ccco3)C(=O)C2=CO1` (configuration not stated) was tested, and the EC50 was > 11 µM (inactive). `COc1ccc(CCNC(=O)c2cc3c(=O)n4cccc(C)c4nc3n(CCCN3CCOCC3)c2=N)cc1` was tested, and the EC50 was > 11 µM (inactive). For `CCN(CC)C(=O)c1sc2nc(-c3cccs3)cc(-c3cccs3)c2c1N`, the EC50 was > 11 µM (inactive). In the case of `CCCCNC(=O)c1cc2c(=O)n3cccc(C)c3nc2n(Cc2ccncc2)c1=N`, the EC50 is reported as > 11 µM (inactive). For `CCN1C/C(=C/c2cccs2)c2nc3ccccc3c(C(=O)O)c2C1`, the EC50 was > 11 µM (inactive). In the case of `c1ccc2[nH]c3cc4ncnc4cc3nc2c1`, the EC50 is reported as > 11 µM (inactive). With `Cn1nc(-c2ccc(Cl)cc2)nc2c(=O)n(C)c(=O)nc1-2` the EC50 was > 11 µM (inactive). With `Cc1ccc(S(=O)(=O)C(C#N)c2nc3ccccc3nc2N2CCC(C)CC2)cc1` (configuration not stated) the EC50 was > 11 µM (inactive). For `Cc1cccc(Oc2nc(-c3ccccn3)nc3ccccc23)c1`, the EC50 was > 11 µM (inactive). `COc1ccc(Nc2nc3ccccc3nc2NS(=O)(=O)c2cccs2)cc1` was tested, and the EC50 was > 11 µM (inactive). `Cc1nn(C)c(C)c1CN(C)C(=O)C1c2ccccc2Oc2ccccc21` was tested, and the EC50 was > 11 µM (inactive). `CN(C)c1ccc(/C=N/N(CCC(=O)NC(C)(C)C)C2=NS(=O)(=O)c3ccccc32)cc1` was tested, and the EC50 was > 11 µM (inactive). With `Cc1n[nH]c(=O)nc1N/N=C/c1ccc(O)c([N+](=O)[O-])c1` the EC50 was > 11 µM (inactive). `COc1cc2c3nnc(-c4ccccc4)c-3cn(Cc3ccc(F)cc3)c2cc1OC` was tested, and the EC50 was > 11 µM (inactive). For `CCC(Oc1ccccc1)C(=O)Nc1ccccn1` (configuration not stated), the EC50 was > 11 µM (inactive). For `CCOc1c(C=C(C#N)C#N)c2ccccc2n1CC`, the EC50 was > 11 µM (inactive). In the case of `O=C(CN1C(=O)/C(=C\C=C\c2ccccc2)SC1=S)Nc1ccc(F)cc1`, the EC50 is reported as > 11 µM (inactive). `Cc1ccc(N=Nc2[nH]c3ccccc3c2O)cc1` was tested, and the EC50 was > 11 µM (inactive). With `O=c1[nH]c(=O)n(Cc2ccccc2)c(O)c1C=Nc1ccc(CN2CCOCC2)cc1` the EC50 was > 11 µM (inactive). With `O=C(O)CCC(=O)NNc1nc(-c2ccccc2)c2cc(Cl)ccc2n1` the EC50 was > 11 µM (inactive). For `Clc1cccc(CSc2nc3ccncc3[nH]2)c1`, the EC50 was > 11 µM (inactive). With `CCCC1Nc2ccc(C(=O)O)cc2C2C=CCC12` (configuration not stated) the EC50 was > 11 µM (inactive). `Cc1ccc(S(=O)(=O)N(CCCN2CCCC2=O)Cc2cc3c(C)ccc(C)c3[nH]c2=O)cc1` was tested, and the EC50 was > 11 µM (inactive). In the case of `FC(F)(F)c1ccc2c(c1)C1C=CCC1C(c1ccncc1)N2` (configuration not stated), the EC50 is reported as > 11 µM (inactive).
